Laboratory results: patent US8563730B2, “Pyrazole and fused pyrazole glucokinase activators” (Takeda San Diego, Inc., priority 2008, dated 2013)
Where two headings read alike, the source gives them in different places.

Target: T1, GK (glucokinase, residues 12-465) (Homo sapiens, UniProt P35557)
T1 construct: I.D. No. 1 corresponds to residues 12-465 of glucokinase; made in house; host or cells: DH10b-T1r E. coli
T1 sequence (P35557 with tags, fused parts or gaps isoform P35557-2): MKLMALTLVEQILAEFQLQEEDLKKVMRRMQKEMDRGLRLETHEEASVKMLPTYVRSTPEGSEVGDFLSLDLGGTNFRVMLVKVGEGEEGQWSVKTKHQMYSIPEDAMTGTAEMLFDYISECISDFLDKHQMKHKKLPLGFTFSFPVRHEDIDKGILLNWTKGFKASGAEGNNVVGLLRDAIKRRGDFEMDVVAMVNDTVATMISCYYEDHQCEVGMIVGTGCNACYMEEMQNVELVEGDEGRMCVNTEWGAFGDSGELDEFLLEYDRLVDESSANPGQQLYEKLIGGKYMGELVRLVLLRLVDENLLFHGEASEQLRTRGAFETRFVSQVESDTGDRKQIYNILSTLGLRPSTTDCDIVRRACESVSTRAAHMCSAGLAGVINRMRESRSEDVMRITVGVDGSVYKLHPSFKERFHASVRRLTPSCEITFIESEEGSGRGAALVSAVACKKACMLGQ
Experiment: enzymatic glucokinase activity assay (ATP consumption, KinaseGlo luminescence)
Format: biochemical
Details: 5 μM ATP, 5 mM Glucose, reported as bins; for EC50: Kact = concentration that displays 50% of the maximal increase in GK activity, 60 min, room temperature, read-out: pKact
Method in brief: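 E. coli-expressed recombinant GK purified by two anion-exchange steps. Reaction in 25 mM Hepes pH 7.2, 10 mM MgCl2, 1 mM DTT, 5 μM ATP, 5 mM glucose, 2% DMSO, 60 min at room temperature. ATP consumption quantified by KinaseGlo luminescence; pKact and % ACTmax derived by non-linear curve fitting.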

[1] = calculated maximal gain in GK enzyme activity at a saturating concentration of the compound, read-out: % ACTmax

| EC50 | Emax [1] | Compound | Emax (read-out: % ACTmax, calculated maximal gain in GK enzyme activity at a saturating concentration of the compound) |
| --- | --- | --- | --- |
| ≥ 15.8 µM | ≤ 90% | O=C(Nc1cnccn1)C(CC1CCOCC1)n1cc2c(S(=O)(=O)C3CC3)cc(Cl)cc2n1 (centres unmarked) [Compound 168, 2-(6-chloro-4-(cyclopropylsulfonyl)-2H-indazol-2-yl)-N-(pyrazin-2-yl)-3-(tetrahydro-2H-pyran-4-yl)propanamide] | – |
| ≥ 15.8 µM | ≤ 90% | O=C(Nc1cnccn1)C(CC1CCOCC1)n1cc2c(S(=O)(=O)C3CC3)cncc2n1 (centres unmarked) [Compound 169, 2-(4-(cyclopropylsulfonyl)-2H-pyrazolo[3,4-c]pyridin-2-yl)-N-(pyrazin-2-yl)-3-(tetrahydro-2H-pyran-4-yl)propanamide] | – |
| ≥ 15.8 µM | ≤ 90% | Cn1ccc(NC(=O)C(CC2CCOCC2)n2ncc3c(S(=O)(=O)C4CC4)cc(N)nc32)n1 (centres unmarked) [Compound 170, 2-(6-amino-4-(cyclopropylsulfonyl)-1H-pyrazolo[3,4-b]pyridin-1-yl)-N-(1-methyl-1H-pyrazol-3-yl)-3-(tetrahydro-2H-pyran-4-yl)propanamide] | – |

| Compound | EC50 | Emax [1] | Emax (read-out: % ACTmax, calculated maximal gain in GK enzyme activity at a saturating concentration of the compound) |
| --- | --- | --- | --- |
| O=C(Nc1cnccn1)[C@H](CC1CCOCC1)n1ncc2c(S(=O)(=O)C3CC3)cncc21 [Compound 171, (S)-2-(4-(cyclopropylsulfonyl)-1H-pyrazolo[3,4-c]pyridin-1-yl)-N-(pyrazin-2-yl)-3-(tetrahydro-2H-pyran-4-yl)propanamide] | 1.58 to 3.16 µM | – | 106 to 110% |
